Where only a bound is given, the exact number is not on record here.

Our source for the IC50 values is patent US20240376099A1, “COMPOUNDS AND COMPOSITIONS AS INHIBITORS OF ENDOSOMAL TOLL-LIKE RECEPTORS” (Novartis AG, priority 2016, published 2024).

The target in the test is T1, TLR9 (Homo sapiens, UniProt Q9NR96).
T1 construct: Fresh blood was collected from normal human donors; endogenous in cells; host or cells: human PBMCs from fresh donor blood
T1 sequence (Q9NR96 26-1032): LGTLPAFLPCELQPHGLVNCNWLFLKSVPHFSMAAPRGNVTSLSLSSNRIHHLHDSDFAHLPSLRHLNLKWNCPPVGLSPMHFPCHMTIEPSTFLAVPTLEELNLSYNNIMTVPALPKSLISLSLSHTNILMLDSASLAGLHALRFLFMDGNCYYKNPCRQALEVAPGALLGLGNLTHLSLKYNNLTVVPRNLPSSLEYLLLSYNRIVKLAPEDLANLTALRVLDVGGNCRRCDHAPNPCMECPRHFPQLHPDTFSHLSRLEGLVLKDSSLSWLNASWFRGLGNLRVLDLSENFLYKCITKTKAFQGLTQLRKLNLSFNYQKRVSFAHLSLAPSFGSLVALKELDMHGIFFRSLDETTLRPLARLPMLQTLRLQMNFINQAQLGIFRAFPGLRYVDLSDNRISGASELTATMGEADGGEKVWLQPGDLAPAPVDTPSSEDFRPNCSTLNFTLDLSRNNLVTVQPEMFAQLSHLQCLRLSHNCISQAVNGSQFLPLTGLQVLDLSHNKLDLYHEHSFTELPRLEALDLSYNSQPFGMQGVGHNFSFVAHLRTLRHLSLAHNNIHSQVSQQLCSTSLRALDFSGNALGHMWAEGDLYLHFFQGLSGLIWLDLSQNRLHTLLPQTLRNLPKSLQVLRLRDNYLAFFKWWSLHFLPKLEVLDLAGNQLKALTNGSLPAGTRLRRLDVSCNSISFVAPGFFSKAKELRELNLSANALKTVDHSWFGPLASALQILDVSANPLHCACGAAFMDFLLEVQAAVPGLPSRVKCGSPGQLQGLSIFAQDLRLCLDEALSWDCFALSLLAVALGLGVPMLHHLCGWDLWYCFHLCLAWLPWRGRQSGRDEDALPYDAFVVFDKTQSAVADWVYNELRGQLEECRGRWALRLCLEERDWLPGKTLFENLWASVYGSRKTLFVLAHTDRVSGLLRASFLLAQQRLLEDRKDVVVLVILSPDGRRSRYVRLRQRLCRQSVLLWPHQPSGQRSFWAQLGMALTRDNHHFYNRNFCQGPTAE
As to the kind of experiment: huPBMC TLR9 Antagonist IFNα Assay. The test is classed as cell-based. To be noted: human PBMCs stimulated with ODN2216 0.3 μM, 14-16 hrs; IFNα2b AlphaLISA read-out. The protocol: Compounds were generally serially diluted (1/3) in DMSO and plated on sterile 384 well tissue culture plates and stored until ready for use. Each ten-point dilution was typically plated in triplicate in parallel rows.
Fresh blood was collected from normal human donors underwritten informed consent in heparinized syringes on the morning of the assay. The blood was diluted in RPMI-1640 medium and the white blood cells were separated from red blood cells by centrifugation (800 g 15′ 0 acceleration, 0 brake) on a Ficoll cushion. Peripheral blood mononuclear cells (PBMCs) were separated from platelets by a series of low-speed centrifugations (1000RPM 10′) in PBS+5% HI—FBS and 1 mM EDTA. Purified PBMCs were re-suspended in assay medium (RPMI-1640 w Glutamax (Invitrogen) supplemented with 5% HI—FBS, 10 mM HEPES, 50 uM β-mercaptoethanol, and 100 mG/L penicillin/streptomycin cocktail). Viable PBMCs were counted on a hemacytometer and kept on ice until ready for plating.
A 4× concentration (4 ug/ml or 40 ug/ml for TLR8 or TLR7 assays, respectively) of the TLR7/8 agonist ssRNA40 (IDT) was complexed with 10% DOTAP (Roche) in assay medium for 30 min prior to addition to the PBMC suspension (5 million cells/ml). After addition, the final concentration of ssRNA40 in the TLR7/8 stimulated PBMC suspension was 1 μg/ml for TLR8 assay, and 10 μg/mL for the TLR7 assay. The final DOTAP concentration was 2.5%. Diluted PBMCs (5 million cells/ml) were treated with 4×TLR9 agonist ODN2216 (Invivogen). Final concentration of ODN2216 in TLR9 stimulated PBMC suspension was 0.3 μM.
Agonist stimulated PBMCs were plated on the compound treated 384 well plates at 150,000 cells/well. Un-stimulated PBMCs were plated as controls on each plate. Plating volume was 40 μL per well. DMSO concentration in each well was 0.25%.
A separate plate, without compounds, with titrations of ssRNA40 and ODN2216 was included in every assay to measure agonist response of each donor's PBMC prep. Assay plates were placed in a tissue culture incubator (37° C., 5% CO2) for 14-16 hrs. After this incubation, the plates were centrifuged and stored at −20° C. until they were assayed.
IL-6 TR-FRET Assay for TLR8 activity: • 1) Cisbio Human IL-6 kit, 20,000 tests (62TNFPEC), and GNF High-Base TC 384 well plates (cat #789163G) were used; • 2) the Anti-TIL-6 Cryptate conjugate and the Anti-IL-6 XL665 conjugate were diluted 1:20 in Reconstitution Buffer; • 3) a 1:1 mixture of 3 μl/well Anti-IL-6 Cryptate conjugate and 3 μl/well Anti-IL-6 XL665 conjugate was prepared; • 4) 6 μl/well HTRF dilution mastermix was added to 6 μl of transferred supernatant samples in proxiplates; • 5) The plates were incubated for 3 hrs at rt in the dark; and • 6) the levels of IL-6 production was measured using an Envision plate reader (665 nm (emmission)/590 nm (excitation)) with HTRF settings and ratiometric read-out: (XL665 emission/Eu Cryptate emission)×10,000. IFNα2b AlphaLISA Assay for TLR7 or TLR9 activity After thawing the assay plates, 6 μL of supernatant samples were transferred to a low-volume AlphaPlate 384SW (Perkin-Elmer). The concentration of IFNα in supernatants was measured using the IFNα2b AlphaLISA Assay (Perkin-Elmer: AL297F). 3 μL of IFNα acceptor beads/biotinylated antibody solution was added first, using laboratory automation. After an hour incubation, […] of streptavidin […] bead solution was added. The plates containing this mixture were incubated in the dark for an hour and read on an appropriate plate reader at reading parameters set by the manufacturer. (Envision, EnSpire: Perkin-Elmer).
Take `Cc1cc(N2CCc3c(c(C)nn3CC34CCC(N5C[C@@H](C)O[C@@H](C)C5)(CC3)CC4)C2)c2cnn(C)c2n1` [compound 110, (2S,6R)-4-(4-((5-(1,6-dimethyl-1H-pyrazolo[3,4-b]pyridin-4-yl)-3-methyl-4,5,6,7-tetrahydro-1H-pyrazolo[4,3-c]pyridin-1-yl)methyl)bicyclo[2.2.2]octan-1-yl)-2,6-dimethylmorpholine]: the IC50 is 1.9 µM.
`CN[C@H](C)C(=O)NC12CCC(Cn3nc(C)c4c3CCN(c3cc(C)nc5c3cnn5C)C4)(CC1)CC2` [compound 117, (R)-N-(4-((5-(1,6-dimethyl-1H-pyrazolo[3,4-b]pyridin-4-yl)-3-methyl-4,5,6,7-tetrahydro-1H-pyrazolo[4,3-c]pyridin-1-yl)methyl)bicyclo[2.2.2]octan-1-yl)-2-(methylamino)propanamide]: the IC50 stood at 0.954 µM.
With `Cc1nc(N2CCc3c(c(C)nn3CC34CCC(N5CCOCC5)(CC3)CC4)C2)c2cn[nH]c2n1` [compound 21, 4-(4-((3-methyl-5-(6-methyl-1H-pyrazolo[3,4-d]pyrimidin-4-yl)-4,5,6,7-tetrahydro-1H-pyrazolo[4,3-c]pyridin-1-yl)methyl)bicyclo[2.2.2]octan-1-yl)morpholine] the figure was greater than 10 µM; with `Cc1cc(N2CCc3c(c(C)nn3CC34CCC(NC5CCC5)(CC3)CO4)C2)c2cnn(C)c2n1` [compound 143, N-cyclobutyl-1-((5-(1,6-dimethyl-1H-pyrazolo[3,4-b]pyridin-4-yl)-3-methyl-4,5,6,7-tetrahydro-1H-pyrazolo[4,3-c]pyridin-1-yl)methyl)-2-oxabicyclo[2.2.2]octan-4-amine], 0.841 µM; with `Cc1cc(N2CCc3c(c(C)nn3CC34CCC(NC(=O)CCN(C)C)(CC3)CC4)C2)c2cnn(C)c2n1` [compound 105, N-(4-((5-(1,6-dimethyl-1H-pyrazolo[3,4-b]pyridin-4-yl)-3-methyl-4,5,6,7-tetrahydro-1H-pyrazolo[4,3-c]pyridin-1-yl)methyl)bicyclo[2.2.2]octan-1-yl)-3-(dimethylamino)propanamide], 1.63 µM.
In the case of `Cc1cc(N2CCc3c(c(C)nn3CC34CCC(N5CCOC[C@H]5C)(CC3)CC4)C2)c2cnn(C)c2n1` [compound 129, (R)-4-(4-((5-(1,6-dimethyl-1H-pyrazolo[3,4-b]pyridin-4-yl)-3-methyl-4,5,6,7-tetrahydro-1H-pyrazolo[4,3-c]pyridin-1-yl)methyl)bicyclo[2.2.2]octan-1-yl)-3-methylmorpholine], the IC50 came to 1.05 µM.
As to `Cc1cc(N2CCc3c(c(C)nn3CC34CCC(NC(=O)[C@@H]5COCCN5)(CC3)CC4)C2)c2cnn(C)c2n1` [Compound No. 8, (S)—N-(4-((5-(1,6-dimethyl-1H-pyrazolo[3,4-b]pyridin-4-yl)-3-methyl-4,5,6,7-tetrahydro-1H-pyrazolo[4,3-c]pyridin-1-yl)methyl)bicyclo[2.2.2]octan-1-yl)morpholine-3-carboxamide], the IC50 worked out at 4.28 µM.
`Cc1nn(CC23CCC(NC4CCC4)(CC2)CC3)c2c1CN(c1ccnc(-c3ccccc3)c1)CC2` [compound 144, N-cyclobutyl-4-((3-methyl-5-(2-phenylpyridin-4-yl)-4,5,6,7-tetrahydro-1H-pyrazolo[4,3-c]pyridin-1-yl)methyl)bicyclo[2.2.2]octan-1-amine]: the IC50 worked out at 0.139 µM.
As for `Cc1cc(N2CCc3c(c(C)nn3CC34CCC(NC(=O)C5CNC5)(CC3)CC4)C2)c2cnn(C)c2n1` [compound 131, N-(4-((5-(1,6-dimethyl-1H-pyrazolo[3,4-b]pyridin-4-yl)-3-methyl-4,5,6,7-tetrahydro-1H-pyrazolo[4,3-c]pyridin-1-yl)methyl)bicyclo[2.2.2]octan-1-yl)azetidine-3-carboxamide], the figure is greater than 10 µM; as for `CCNCC(=O)NC12CCC(Cn3nc(C)c4c3CCN(c3cc(C)nc5c3cnn5C)C4)(CC1)CC2` [compound 114, N-(4-((5-(1,6-dimethyl-1H-pyrazolo[3,4-b]pyridin-4-yl)-3-methyl-4,5,6,7-tetrahydro-1H-pyrazolo[4,3-c]pyridin-1-yl)methyl)bicyclo[2.2.2]octan-1-yl)-2-(ethylamino)acetamide], 1.55 µM; as for `CCNCCC(=O)NC12CCC(Cn3nc(C)c4c3CCN(c3cc(C)nc5c3cnn5C)C4)(CC1)CC2` [compound 126, N-(4-((5-(1,6-dimethyl-1H-pyrazolo[3,4-b]pyridin-4-yl)-3-methyl-4,5,6,7-tetrahydro-1H-pyrazolo[4,3-c]pyridin-1-yl)methyl)bicyclo[2.2.2]octan-1-yl)-3-(ethylamino)propanamide], 9.53 µM.
As for `Cc1nc(N2CCc3c(c(C)nn3CC34CCC(N5CC6(COC6)C5)(CC3)CC4)C2)c2c(n1)c(C)nn2C` [Compound No. 10, 6-(4-((3-methyl-5-(1,3,5-trimethyl-1H-pyrazolo[4,3-d]pyrimidin-7-yl)-4,5,6,7-tetrahydro-1H-pyrazolo[4,3-c]pyridin-1-yl)methyl)bicyclo[2.2.2]octan-1-yl)-2-oxa-6-azaspiro[3.3]heptane], the figure is greater than 10 µM; as for `CCN(C)CC(=O)NC12CCC(Cn3nc(C)c4c3CCN(c3cc(C)nc5c3cnn5C)C4)(CC1)CC2` [compound 132, N-(4-((5-(1,6-dimethyl-1H-pyrazolo[3,4-b]pyridin-4-yl)-3-methyl-4,5,6,7-tetrahydro-1H-pyrazolo[4,3-c]pyridin-1-yl)methyl)bicyclo[2.2.2]octan-1-yl)-2-(ethyl(methyl)amino)acetamide], 0.26 µM.
For the compound `CCNCC(=O)NC12CCC(Cn3nc(C)c4c3CCN(c3cc(C)nc5cn[nH]c35)C4)(CC1)CC2` [compound 124, 2-(ethylamino)-N-(4-((3-methyl-5-(5-methyl-1H-pyrazolo[4,3-b]pyridin-7-yl)-4,5,6,7-tetrahydro-1H-pyrazolo[4,3-c]pyridin-1-yl)methyl)bicyclo[2.2.2]octan-1-yl)acetamide], the IC50 is greater than 10 µM.

Usually IC50 stands for the point on the concentration scale where inhibition reaches its midpoint.
